How the values were obtained:
Homo sapiens = species on record: Homo sapiens; assay: Selectivity ratio of IC50 for human CYP11B1 to IC50 for human CYP11B2
CYP19 (aromatase) = biological target: T1, CYP19 (aromatase) (Homo sapiens, UniProt P11511); assay: Inhibition of human placental CYP19 at 500 nM
T1 sequence (P11511 whole entry): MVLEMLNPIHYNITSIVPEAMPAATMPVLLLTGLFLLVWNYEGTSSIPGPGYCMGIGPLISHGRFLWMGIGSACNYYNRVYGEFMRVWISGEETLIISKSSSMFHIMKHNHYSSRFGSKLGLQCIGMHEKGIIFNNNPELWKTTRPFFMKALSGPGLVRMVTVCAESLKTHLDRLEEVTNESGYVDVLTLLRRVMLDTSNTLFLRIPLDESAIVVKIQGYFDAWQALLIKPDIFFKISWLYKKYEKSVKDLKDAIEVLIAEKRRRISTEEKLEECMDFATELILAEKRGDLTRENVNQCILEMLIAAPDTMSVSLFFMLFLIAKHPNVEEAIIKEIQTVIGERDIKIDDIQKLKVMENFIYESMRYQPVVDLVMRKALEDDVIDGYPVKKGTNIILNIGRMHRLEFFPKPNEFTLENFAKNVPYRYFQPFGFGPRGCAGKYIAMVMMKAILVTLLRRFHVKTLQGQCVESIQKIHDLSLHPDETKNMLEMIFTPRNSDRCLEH

Cytochrome P450 2B6 = biological target: T2, Cytochrome P450 2B6 (Homo sapiens, UniProt P20813); assay: Inhibition of human recombinant CYP2B6 expressed in insect microsomes; format: ADME, Microsome
T2 sequence (P20813 whole entry): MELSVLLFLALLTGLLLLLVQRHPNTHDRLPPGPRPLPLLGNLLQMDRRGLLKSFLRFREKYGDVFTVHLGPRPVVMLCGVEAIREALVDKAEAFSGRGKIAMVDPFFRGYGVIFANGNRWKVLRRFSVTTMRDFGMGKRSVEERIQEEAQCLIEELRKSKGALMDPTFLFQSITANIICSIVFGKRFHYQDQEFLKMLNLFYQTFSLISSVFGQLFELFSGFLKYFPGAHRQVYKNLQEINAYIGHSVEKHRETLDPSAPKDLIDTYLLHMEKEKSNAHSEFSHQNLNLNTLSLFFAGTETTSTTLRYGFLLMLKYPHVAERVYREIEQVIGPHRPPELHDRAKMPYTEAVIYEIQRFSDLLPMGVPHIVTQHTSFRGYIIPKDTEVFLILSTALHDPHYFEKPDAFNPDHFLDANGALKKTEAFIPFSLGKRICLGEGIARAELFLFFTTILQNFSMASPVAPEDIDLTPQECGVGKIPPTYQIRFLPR

Cytochrome P450 2C9 = Cytochrome P450 2C9 (Homo sapiens, UniProt P11712); assay: Inhibition of human recombinant CYP2C9 expressed in insect microsomes; format: ADME, Microsome
Cytochrome P450 2C19 = Cytochrome P450 2C19 (Homo sapiens, UniProt P33261); assay: Inhibition of human recombinant CYP2C19 expressed in insect microsomes; format: ADME, Microsome
Cytochrome P450 3A4 = Cytochrome P450 3A4 (Homo sapiens, UniProt P08684); assay: Inhibition of human recombinant CYP3A4 expressed in insect microsomes; format: ADME, Microsome
[1] = Plasma concentration in Wistar rat plasma at 5 mg/kg, po after 2 hrs; format: ADME, organism-based; set-up: dose 5 mg/kg, route oral
[2] = Plasma concentration in Wistar rat plasma at 5 mg/kg, po after 6 hrs; format: ADME, organism-based; set-up: dose 5 mg/kg, route oral
[3] = Plasma concentration in Wistar rat plasma at 5 mg/kg, po after 8 hrs; format: ADME, organism-based; set-up: dose 5 mg/kg, route oral
[4] = Plasma concentration in Wistar rat plasma at 5 mg/kg, po after 24 hrs; format: ADME, organism-based; set-up: dose 5 mg/kg, route oral
[5] = Tmax in Wistar rat at 5 mg/kg, po; format: ADME, organism-based; set-up: dose 5 mg/kg, route oral; conditions: in vivo
[6] = biological target: T3, Cytochrome P450 11B2, mitochondrial (Homo sapiens, UniProt P19099)
T3 sequence (P19099 whole entry): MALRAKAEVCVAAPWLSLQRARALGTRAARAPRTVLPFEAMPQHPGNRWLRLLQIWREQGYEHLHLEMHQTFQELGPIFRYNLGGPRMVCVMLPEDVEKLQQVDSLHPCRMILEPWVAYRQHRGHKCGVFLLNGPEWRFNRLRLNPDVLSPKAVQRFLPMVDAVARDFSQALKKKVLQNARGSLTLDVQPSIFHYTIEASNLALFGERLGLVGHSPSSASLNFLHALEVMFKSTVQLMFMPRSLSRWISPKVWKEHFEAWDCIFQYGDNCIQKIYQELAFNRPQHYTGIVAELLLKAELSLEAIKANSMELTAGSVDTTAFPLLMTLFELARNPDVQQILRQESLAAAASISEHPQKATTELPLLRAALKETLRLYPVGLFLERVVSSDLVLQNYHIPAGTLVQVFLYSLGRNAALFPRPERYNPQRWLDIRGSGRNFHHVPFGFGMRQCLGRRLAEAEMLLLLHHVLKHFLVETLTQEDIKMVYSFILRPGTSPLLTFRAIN

[7] = biological target: T4, Cytochrome P450 11B1, mitochondrial (Homo sapiens, UniProt P15538)
T4 sequence (P15538 whole entry): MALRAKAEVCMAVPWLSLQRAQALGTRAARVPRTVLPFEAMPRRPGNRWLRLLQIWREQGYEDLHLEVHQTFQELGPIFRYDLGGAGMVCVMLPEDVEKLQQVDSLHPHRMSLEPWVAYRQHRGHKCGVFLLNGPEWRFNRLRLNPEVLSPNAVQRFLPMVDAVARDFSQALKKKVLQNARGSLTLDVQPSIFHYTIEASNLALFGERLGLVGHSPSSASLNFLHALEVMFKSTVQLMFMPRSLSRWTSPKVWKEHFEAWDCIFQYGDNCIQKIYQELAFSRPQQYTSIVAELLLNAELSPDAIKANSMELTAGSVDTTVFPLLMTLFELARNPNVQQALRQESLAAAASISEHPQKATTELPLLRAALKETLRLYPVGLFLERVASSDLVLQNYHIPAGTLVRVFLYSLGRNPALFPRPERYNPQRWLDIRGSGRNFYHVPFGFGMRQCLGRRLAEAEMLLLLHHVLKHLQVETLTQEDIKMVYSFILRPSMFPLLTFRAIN

in vivo = conditions: Wistar, rat, plasma, po, 5 mg/kg

Chain of Cytochrome P450 2C9 (P11712 whole entry): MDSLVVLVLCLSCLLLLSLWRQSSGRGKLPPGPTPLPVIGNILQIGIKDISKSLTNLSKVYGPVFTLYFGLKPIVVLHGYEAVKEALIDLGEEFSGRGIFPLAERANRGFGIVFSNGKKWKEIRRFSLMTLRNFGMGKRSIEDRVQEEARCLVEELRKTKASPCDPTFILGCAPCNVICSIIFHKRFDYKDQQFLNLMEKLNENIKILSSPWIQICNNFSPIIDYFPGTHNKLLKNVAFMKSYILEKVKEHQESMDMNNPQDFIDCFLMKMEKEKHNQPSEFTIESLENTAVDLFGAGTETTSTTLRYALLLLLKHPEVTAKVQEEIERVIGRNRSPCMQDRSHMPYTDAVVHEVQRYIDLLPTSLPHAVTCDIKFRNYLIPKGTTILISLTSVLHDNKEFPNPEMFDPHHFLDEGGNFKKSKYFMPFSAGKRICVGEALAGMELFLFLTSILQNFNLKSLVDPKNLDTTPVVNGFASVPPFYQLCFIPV
Chain of Cytochrome P450 3A4 (P08684 whole entry): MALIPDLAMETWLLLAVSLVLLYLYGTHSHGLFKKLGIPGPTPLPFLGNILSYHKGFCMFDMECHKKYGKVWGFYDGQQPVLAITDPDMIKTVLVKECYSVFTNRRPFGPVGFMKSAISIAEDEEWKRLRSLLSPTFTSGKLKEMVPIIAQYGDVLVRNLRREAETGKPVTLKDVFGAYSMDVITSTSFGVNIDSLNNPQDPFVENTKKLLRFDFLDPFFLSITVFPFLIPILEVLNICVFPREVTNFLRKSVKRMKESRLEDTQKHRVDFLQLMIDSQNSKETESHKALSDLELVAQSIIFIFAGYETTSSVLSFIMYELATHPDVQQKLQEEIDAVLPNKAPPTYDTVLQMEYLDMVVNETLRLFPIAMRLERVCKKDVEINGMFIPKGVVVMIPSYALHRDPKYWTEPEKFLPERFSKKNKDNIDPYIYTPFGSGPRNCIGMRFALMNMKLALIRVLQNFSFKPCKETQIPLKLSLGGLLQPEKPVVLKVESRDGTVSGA
Chain of Cytochrome P450 2C19 (P33261 whole entry): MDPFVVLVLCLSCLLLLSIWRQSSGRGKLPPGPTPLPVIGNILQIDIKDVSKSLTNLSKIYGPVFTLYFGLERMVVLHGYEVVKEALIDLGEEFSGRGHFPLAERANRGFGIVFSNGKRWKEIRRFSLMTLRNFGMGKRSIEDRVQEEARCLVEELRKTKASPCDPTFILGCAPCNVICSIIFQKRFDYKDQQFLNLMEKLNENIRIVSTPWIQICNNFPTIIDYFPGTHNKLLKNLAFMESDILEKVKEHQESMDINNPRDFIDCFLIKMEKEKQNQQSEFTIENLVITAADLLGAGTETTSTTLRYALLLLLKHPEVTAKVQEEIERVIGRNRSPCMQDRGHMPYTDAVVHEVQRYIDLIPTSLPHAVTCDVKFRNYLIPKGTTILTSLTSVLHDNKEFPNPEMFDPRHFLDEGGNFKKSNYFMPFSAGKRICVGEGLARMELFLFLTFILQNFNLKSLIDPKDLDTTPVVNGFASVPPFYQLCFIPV

Ratio IC50 (Homo sapiens): 112
inhibition at 0.5 µM (CYP19 (aromatase)): 7%
IC50 (Cytochrome P450 2B6): 16500 nM
IC50 (Cytochrome P450 2C9): 1270 nM
IC50 (Cytochrome P450 2C19): 3540 nM
IC50 (Cytochrome P450 3A4): 3540 nM
concentration at 2 h [1]: 55.8 ng/mL
concentration at 6 h [2]: 81.4 ng/mL
concentration at 8 h [3]: 34.6 ng/mL
concentration at 24 h [4]: 1.28 ng/mL
Tmax [5]: 6 h
IC50 [6]: 0.6 nM
IC50 [7]: 67 nM
AUC(0-inf) (in vivo): 762 ng·h/mL
SMILES: COc1ccc2cc(-c3cncc4ccccc34)ccc2c1
